{
  "source": "patent US10206916B2",
  "about": "“Cabozantinib salts and their use as anti-cancer agents” (Sandoz AG, priority 2015, dated 2019)",
  "key": {"[1]": {"assay": "Dynamic vapour sorption (DVS) with post-DVS XRPD", "assay_type": "physicochemical", "conditions": "for water up take (weight gain) by DVS: between 20% and 70% RH, ca. 25° C.; for hygroscopicity by DVS: 20% to 70% RH, non-hygroscopic = weight gain of less than 2 weight-%; for Post-DVS XRPD analysis: after DVS sorption/desorption cycle; for hygroscopicity compared with cabozantinib malate: based on DVS isotherm", "method": "XRPD analysis was carried out on a Siemens D5000 diffractometer, scanning the samples between 3 and 50 or 30°2-theta. For samples of less than 100 mg, 10-20 mg of material was gently compressed onto a glass disc inserted into an XRPD sample holder. For samples of more than 100 mg, ca. 100 mg of material was gently compressed into a plastic XRPD sample holder to ensure a smooth sample surface, just above the level of the sample holder. The sample was then loaded into the diffractometer running in reflection mode and analyzed using the following experimental conditions. C) Water Content: Dynamic Vapour Sorption (DVS) Approximately 10-20 mg of sample was placed into a vapour sorption balance pan and loaded into a DVS-1 dynamic vapour sorption balance by Surface Measurement Systems. The sample was subjected to a ramping profile from 20-90% relative humidity (RH) at 10% increments, maintaining the sample at each step until a stable weight had been achieved (99.5% step completion). After completion of the sorption cycle, the sample was dried using the same procedure, but all the way down to 0% RH and finally taken back to the starting point of 20% RH. The weight change during the sorption/desorption cycles were plotted, allowing for the hygroscopic nature of the sample to be determined."}, "[2]": {"assay": "Thermogravimetric/differential thermal analysis (TG/DTA)", "assay_type": "physicochemical", "method": "B) Organic Solvent Content: Thermogravimetric Analysis (TGA) Approximately, 5-10 mg of material was accurately weighed into an open aluminium pan and loaded into a simultaneous thermogravimetric/differential thermal analyser (TG/DTA) and held at room temperature. The sample was then heated at a rate of 10° C./min from 25° C. to 300° C. during which time the change in sample weight was recorded along with any differential thermal events (DTA). Nitrogen was used as the purge gas, at a flow rate of 100 cm^3/min."}, "[3]": {"conditions": "cited from earlier work"}, "[4]": {"conditions": "reported in WO2010/083414; cited from earlier work"}, "[5]": {"assay": "Aqueous solubility measurement (slurry in deionized water, HPLC analysis)", "assay_type": "physicochemical", "method": "HPLC analysis was performed according to the following conditions: • Instrument: Agilent 1100 • Column: Grace Smart RP 185μ 150×4.6 mm • Column Temperature: 30° C. UV wavelength: 249 nm • Injection Volume: 10 μl • Flow Rate: 1.2 ml/min • Mobile Phase A: 0.1% Phosphoric acid • Mobile Phase B: 0.1% Phosphoric acid in acetonitrile • Gradient program: H) Aqueous Solubility Measurements Each salt was individually slurried in deionized water and subjected to shaking for ca. 24 h at ambient temperature (ca. 22° C.). The resulting saturated solutions were filtered and analyzed by HPLC analysis. XRPD analysis was carried out on any solid retained after the solubility experiment."}, "[6]": {"conditions": "listed as cabozantinib succinate Form A, succinate"}, "[7]": {"conditions": "listed as crystalline succinate salt of cabozantinib, succinate"}, "[8]": {"conditions": "listed as acetate salt, acetate"}},
  "data": [
    {"compound": "COc1cc2nccc(Oc3ccc(NC(=O)C4(C(=O)Nc5ccc(F)cc5)CC4)cc3)c2cc1OC", "note": "[(L)-malate, reference compound]", "values": [
      {"measurement": "weight gain relative to cabozantinib succinate Form A", "setting": "[1]; DVS, 20 to 70% RH", "value": 10, "unit": "fold"},
      {"measurement": "water up take (weight gain) by DVS", "setting": "[1]", "value": 0.3, "unit": "weight-%"},
      {"measurement": "water up take (weight gain) by DVS", "setting": "[1]; listed as L-malate", "value": "about 0.3 weight-%"},
      {"measurement": "water up take (weight gain) by DVS", "setting": "[1]; listed as cabozantinib malate", "value": "about 0.3 weight-%"},
      {"measurement": "TG/DTA weight loss corresponding to the endotherm in DTA trace at ca. 178° C.", "setting": "[2]; at ca. 178° C.", "value": "C. and 1% loss"},
      {"measurement": "TG/DTA weight loss below ca. 178° C.", "setting": "[2]; below ca. 178° C.", "value": 1.2, "unit": "weight-% loss"},
      {"measurement": "solubility compared with cabozantinib free base", "setting": "[3]", "value": "enhanced solubility"},
      {"measurement": "hygroscopicity as reported", "setting": "[4]", "value": "non-hygroscopic"}
    ]},
    {"compound": "COc1cc2nccc(Oc3ccc(NC(=O)C4(C(=O)Nc5ccc(F)cc5)CC4)cc3)c2cc1OC", "note": "[Cabozantinib, N-{4-[(6,7-dimethoxy-4-quinolinyl)oxy]phenyl}-N′-(4-fluorophenyl)-1,1-cyclopropanedicarboxamide]", "values": [
      {"measurement": "solubility (BCS classification)", "setting": "[3]", "value": "low solubility"}
    ]},
    {"compound": "COc1cc2nccc(Oc3ccc(NC(=O)C4(C(=O)Nc5ccc(F)cc5)CC4)cc3)c2cc1OC.O=C(O)CCC(=O)O", "note": "[Form A, N-{4-[(6,7-dimethoxy-4-quinolinyl)oxy]phenyl}-N′-(4-fluorophenyl)-1,1-cyclopropanedicarboxamide succinate]", "values": [
      {"measurement": "solubility compared to cabozantinib malate", "setting": "[5]; comparison in words, no malate value printed", "value": "improved solubility"},
      {"measurement": "solid form after the solubility experiment (XRPD)", "setting": "[5]; solid retained after solubility experiment", "value": "consistent with the input succinate salt"},
      {"measurement": "solubility", "setting": "[5]; thermodynamic from solid, deionized water, shaking ca. 24 h, ambient temperature (ca. 22° C.), HPLC analysis", "value": 164, "unit": "µg/mL"},
      {"measurement": "hygroscopicity by DVS", "setting": "[1]", "value": "non-hygroscopic"},
      {"measurement": "Post-DVS XRPD analysis", "setting": "[1]; [6]", "value": "remained crystalline and consistent with the input form"},
      {"measurement": "Post-DVS XRPD analysis", "setting": "[1]; [7]", "value": "remained crystalline and was consistent with the input form"},
      {"measurement": "hygroscopicity compared with cabozantinib malate", "setting": "[1]; [6]", "value": "less hygroscopic"},
      {"measurement": "hygroscopicity compared with cabozantinib malate", "setting": "[1]; succinate", "value": "lower hygroscopicity"},
      {"measurement": "water up take (weight gain) by DVS", "setting": "[1]; [6]", "value": "about 0.03 weight-%"},
      {"measurement": "water up take (weight gain) by DVS", "setting": "[1]; [7]", "value": "ca. 0.03 weight-%"},
      {"measurement": "water up take (weight gain) by DVS", "setting": "[1]; succinate", "value": 0.03, "unit": "weight-%"},
      {"measurement": "TG/DTA weight loss corresponding to the endotherm in the DTA trace at ca. 173° C.", "setting": "[2]; heating rate 10° C./min, at ca. 173° C., listed as cabozantinib succinate Form A, succinate", "value": "~1", "unit": "weight-%"},
      {"measurement": "TG/DTA weight loss below ca. 173° C.", "setting": "[2]; heating rate 10° C./min, below ca. 173° C., listed as cabozantinib succinate Form A, succinate", "value": "< 0.6", "unit": "weight-%"}
    ]},
    {"compound": "CC(=O)O.COc1cc2nccc(Oc3ccc(NC(=O)C4(C(=O)Nc5ccc(F)cc5)CC4)cc3)c2cc1OC", "note": "[Form A-1, N-{4-[(6,7-dimethoxy-4-quinolinyl)oxy]phenyl}-N′-(4-fluorophenyl)-1,1-cyclopropanedicarboxamide acetate]", "values": [
      {"measurement": "hygroscopicity by DVS", "setting": "[1]", "value": "non-hygroscopic"},
      {"measurement": "Post-DVS XRPD analysis", "setting": "[1]; acetate", "value": "remained crystalline and consistent with the input form"},
      {"measurement": "Post-DVS XRPD analysis", "setting": "[1]; [8]", "value": "remained crystalline"},
      {"measurement": "hygroscopicity compared with cabozantinib malate", "setting": "[1]", "value": "less hygroscopic"},
      {"measurement": "water up take (weight gain) by DVS", "setting": "[1]; [8]", "value": "~0.1", "unit": "weight-%"}
    ]}
  ]
}
